{"source": "patent US20020132266A1", "about": "“Method for modifying and identifying functional sites in proteins” (priority 1998, published 2002)", "target": "T1, human α-Thrombin (Homo sapiens, UniProt P00734)", "T1 construct": "the light chain and the heavy chain were separated by reverse phase chromatography; gift from Prof; Bode, MPI Martinsried", "test": "CALI experiment: serine-protease activity of thrombin measured with Chromozym TH after laser irradiation", "type": "biochemical", "details": "0.38 μM thrombin, 0.76 μM aptamer (1:2); argon ion laser 496 nm, 800 mW, 30 seconds per well; percentage of thrombin activity in a non-irradiated control; Chromozym TH substrate", "experimental": "Complexes were formed by mixing 7.6 μM thrombin with the fluorescein-labeled aptamer (1:2 molar ratio) in 50 mM Tris buffer, pH 8.3, 100 mM NaCl, and an incubation time of 30 min on ice in the dark.\nControl samples were prepared as described above, either omitting the aptamer, using a non-labeled aptamer or an equal concentration of FITC. Subsequently, the solutions were diluted 20-fold with the same buffer. The final concentrations were 0.38 μM thrombin and 0.76 μM aptamer. The samples were pipetted in 100 μl aliquots into wells of a flat bottom 96-well microtiter plate (Nunc A/S, Roskilde, DK), typically 1.2 ml or 12 wells total per sample. The plate was blocked with 1% BSA in PBS for 1 hour and then washed extensively prior to use.\nThe serine-protease activity of thrombin was measured using Chromozym TH (Roche Diagnostics GmbH, Mannheim, Germany) as substrate. […] The absorbance increase at 405 nm, due to the cleavage of Chromozym TH into a residual peptide and free […] by thrombin, was followed with the time. The absorbance difference per minute, calculated in the linear range, was used to calculate the thrombin activity in U/ml. […]", "note": "{Fluorescein} = fluorescein label", "data": [{"substance": "Flu-THR15: fluorescein-labeled, thrombin-specific aptamer, 15-mer oligonucleotide GGTTGGTGTGGTTGG with the fluorescein moiety linked to its 5′ end (DNA, 5' {Fluorescein}, backbone not given here)", "values": [{"measurement": "thrombin inactivation upon irradiation (CALI effect)", "value": 55, "unit": "%"}]}]}
